Among the data in the supplement of paper PMC10307832 are relative viability values, retold here.

Holding throughout (test): relative viability (nuclei count vs DMSO), 5 days (fraction); higher = more cells survive
Compound in experiment [1]: C[C@@H](N)c1ccc(C(=O)Nc2ccnc3[nH]ccc23)cc1 + O=C(CCCCCCC(=O)Nc1ccccc1)NO [Vorinostat] (partner 1 µM)
The method in brief:
(§1)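 Lung cancer cell lines were pin-tool dosed in 1536-well plates on the day after seeding, with either a lone drug or a fixed anchor-drug dose plus five library-drug doses (not always all listed) in √10 steps. Nuclei were counted on 4× images after 5 days. Relative viability is the ratio of treated-well to vehicle-well nuclei counts, with each value a median of duplicate plates.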

Compound in the experiment “Tanzisertib + Crizotinib”: O[C@H]1CC[C@H](Nc2ncc3nc(Nc4c(F)cc(F)cc4F)n([C@H]4CCOC4)c3n2)CC1 [Tanzisertib] + C[C@@H](Oc1cc(-c2cnn(C3CCNCC3)c2)cnc1N)c1c(Cl)ccc(F)c1Cl [Crizotinib] (partner 1 µM)
The gist of the method: as §1

Compound in experiment [2]: C1CNCCC1C2=CC(=NN2)C3=CC=NC=C3 + CS(=O)(=O)CCNCc1ccc(-c2ccc3ncnc(Nc4ccc(OCc5cccc(F)c5)c(Cl)c4)c3c2)o1 [Lapatinib] (partner 2 µM)
The gist of the method:
as §1

Compound in the experiment “Tanzisertib + Luminespib”: O[C@H]1CC[C@H](Nc2ncc3nc(Nc4c(F)cc(F)cc4F)n([C@H]4CCOC4)c3n2)CC1 [Tanzisertib] + CCNC(=O)c1noc(-c2cc(C(C)C)c(O)cc2O)c1-c1ccc(CN2CCOCC2)cc1 [Luminespib] (partner 0.01 µM)
The method in brief:
as §1

For UMC-11, the relative viability in experiment [1] (first compound 0.04 µM) was 0.459; in experiment [1] (first compound 0.1265 µM), 0.514; in experiment [1] (first compound 0.4 µM) it was 0.515; in experiment [1] (first compound 1.265 µM), 0.504; in experiment [1] (first compound 4 µM), 0.356; with Tanzisertib + Crizotinib (first compound 0.08 µM), 0.654. Also, the relative viability was found to be 0.703 with Tanzisertib + Crizotinib (first compound 0.253 µM); 0.631 with Tanzisertib + Crizotinib (first compound 0.8 µM); 0.687 with Tanzisertib + Crizotinib (first compound 2.53 µM); 0.675 in the experiment with Tanzisertib + Crizotinib (first compound 8 µM); 0.73 in experiment [2] (first compound 0.08 µM); 1.23 in experiment [2] (first compound 0.8 µM). In addition, the relative viability in experiment [2] (first compound 2.53 µM) was 1.05; in experiment [2] (first compound 8 µM) it was 1.04; with Tanzisertib + Luminespib (first compound 0.08 µM) it was 1.1; with Tanzisertib + Luminespib (first compound 0.253 µM), 1; with Tanzisertib + Luminespib (first compound 0.8 µM), 0.946; in the experiment with Tanzisertib + Luminespib (first compound 2.53 µM), 1.08. For the same cell line, the relative viability in the experiment with Tanzisertib + Luminespib (first compound 8 µM) was 1.03.
